Peptide text beside a SMILES is read from it.
Assays:
[1] = Circulating cholesterol and body weight of immunized mice; format: in vivo; settings: n = 10; mean±Std
Description: Immunization protocols Male apoE (−/−) mice (Jackson Laboratories) were housed in an animal facility accredited by the American Association of Accreditation of Laboratory Animal Care and kept on a 12-hour day/night cycle with unrestricted access to water and food. The Institutional Animal Care and Use Committee of Cedars-Sinai Medical Center approved the experimental protocols. […] Mice, maintained on normal chow diet, received subcutaneous primary immunization in the dorsal area between scapulas at 6-7 weeks of age, followed by a booster at 9 and 12 weeks of age. One week after last booster, diet was switched to high cholesterol chow (TD 88137, Harlan-Teklad) and continued until euthanasia at the age of 25 weeks. Separate groups of mice receiving PBS or cBSA/alum at the same immunization time-points served as control. Some mice were sacrificed at 8 or 13 weeks of age to assess immune response against p210.
The vaccine preparation consisted of the p210 peptide (Euro-Diagnostica AB, Sweden) conjugated to cationic bovine serum albumin (cBSA) as carrier using a method described previously^3;4. Alum was used as adjuvant and mixed with peptide/cBSA conjugated with 1:1 ratio in volume. Peptide conjugation was performed on the day of immunization and freshly mixed with alum just prior to each immunization. […]

atherosclerosis = settings: WO 02/080954, Table B; cited from earlier work

Row | Molecule | Body weight [1] | percentage reduction of atherosclerosis (atherosclerosis) [%]
1 | CC(C)C[C@H](NC(=O)[C@H](CC(=O)O)NC(=O)[C@H](Cc1ccccc1)NC(=O)[C@H](CO)NC(=O)[C@H](CCC(N)=O)NC(=O)[C@H](CCCCN)NC(=O)[C@@H](NC(=O)[C@@H](NC(=O)[C@@H](N)CCCCN)[C@@H](C)O)[C@@H](C)O)C(=O)N[C@@H](CO)C(=O)N[C@H](C(=O)N[C@@H](CCCCN)C(=O)N[C@@H](C)C(=O)N[C@@H](CCC(N)=O)C(=O)N[C@@H](Cc1ccc(O)cc1)C(=O)N[C@@H](CCCCN)C(=O)N[C@@H](CCCCN)C(=O)N[C@@H](CC(N)=O)C(=O)N[C@@H](CCCCN)C(=O)N[C@@H](Cc1c[nH]cn1)C(=O)O)C(C)C [p210, KTTKQ SFDLS VKAQY KKNKH] (H-KTTKQSFDLSVKAQYKKNKH-OH) | without affecting | 
2 | EEEML ENVSL VCPKD ATRFK [p1] |  | 31
3 | HTFLI YITEL LKKLQ STTVM (HTFLIYITELLKKLQSTTVM) [p301] |  | 55.2
4 | IEIGL EGKGF EPTLE ALFGK (IEIGLEGKGFEPTLEALFGK) [p45] |  | 47.4
